Reference: paper PMC12668310, “High‐Throughput Synthesis and Screening of a Cyanimide Library Identifies Selective Inhibitors of ISG15‐Specific Protease mUSP18” (Angewandte Chemie (International Ed. in English), 2025)

Assays:
Flag-mUSP18 = target: T1, Flag-mUSP18 (Mus musculus, UniProt Q9WTV6); experiment: Gel-based ABPP with Rho-mISG15ct-PA probe in HEK293T cells overexpressing Flag-mUSP18; type: cell-based, murine; conditions: live HEK293T cells, Flag-mUSP18, 4 h treatment
T1 construct: expressed in transfected cells; host or cells: HEK293T
T1 sequence (Q9WTV6 1-368): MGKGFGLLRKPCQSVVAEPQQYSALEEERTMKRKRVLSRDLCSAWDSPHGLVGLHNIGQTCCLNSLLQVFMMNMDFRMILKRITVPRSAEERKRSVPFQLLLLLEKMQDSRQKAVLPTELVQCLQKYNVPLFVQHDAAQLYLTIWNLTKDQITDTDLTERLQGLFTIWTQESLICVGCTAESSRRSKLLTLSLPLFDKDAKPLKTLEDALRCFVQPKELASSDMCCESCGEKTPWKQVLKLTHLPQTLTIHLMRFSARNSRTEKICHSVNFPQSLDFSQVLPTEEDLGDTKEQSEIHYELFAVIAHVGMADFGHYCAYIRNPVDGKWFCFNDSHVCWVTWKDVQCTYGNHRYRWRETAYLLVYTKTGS
Procedure: To assess the cellular target engagement and cell permeability of these inhibitors, we performed activity‐based protein profiling. […] Following washing and cell lysis, cell extracts were incubated with a Rhodamine‐tagged murine ISG15 C‐terminal domain propargylamide activity‐based probe (Rho‐mISG15ct‐PA), which covalently labels the active site cysteine of active deISGylating enzymes.^[ [41] ^] The labelled enzymes were resolved by SDS‐PAGE and imaged by in‐gel fluorescence, where inhibition of USP18 is reflected by disappearance of the USP18‐probe‐labelled bands around 55 kDa (Figures 6a, S11A). All three inhibitors engaged with cellular mUSP18 in a dose‐dependent manner, with BB07CA902 and BB07CA28 showing efficient inhibition already at 1 µM concentration. […] The in‐cell selectivity of these inhibitors for USP18 over DUBs was confirmed in a similar ABPP experiment using a Rhodamine‐tagged ubiquitin propargylamide probe (Rho‐Ub‐PA),^[ [42] ^] which labels the active site cysteine of all active cysteine DUBs.
Figure 6 Inhibition of murine USP18 activity in living cells. a) Gel‐based ABPP potency assessment using a Rho‐mISG15ct‐PA probe in HEK293T cells overexpressing Flag‐mUSP18. At 24 h following transfection, cells were incubated with DMSO or increasing concentrations of indicated inhibitors for 4 h, lysed, and treated with Rho‐mISG15ct‐PA probe. Top panel: fluorescence scan. Middle panel: anti‐Flag western blot. Bottom panel: anti‐GAPDH western blot confirms equal loading. b) Accumulation of ISGylation in mouse IFN‐β‐stimulated EL4 cells. At 24 h following mouse IFN‐β treatment, cells were incubated with DMSO or increasing concentrations of indicated inhibitors for 4 h, lysed, and treated with Rho‐mISG15ct‐PA probe. […] Middle panel: fluorescence scan. […]
Samples were then diluted 3-fold with water and analyzed by mass spectrometry by injecting 2 μL into a Waters XEVO-G2 XS Q-TOF mass spectrometer equipped with an electrospray ion source in positive mode (capillary voltage 1.2 kV, desolvation gas flow 900 L/h, T = 60 °C) with a resolution of R = 26,000. […]

[1] = test system: cellular ISGylation in EL4 cells; experiment: ISGylation accumulation in mouse IFN-β-stimulated EL4 cells (anti-mISG15 western blot); type: cell-based; conditions: 4 h treatment, anti-mISG15 blot
Procedure: Figure 6 Inhibition of murine USP18 activity in living cells. a) Gel‐based ABPP potency assessment using a Rho‐mISG15ct‐PA probe in HEK293T cells overexpressing Flag‐mUSP18. At 24 h following transfection, cells were incubated with DMSO or increasing concentrations of indicated inhibitors for 4 h, lysed, and treated with Rho‐mISG15ct‐PA probe. Top panel: fluorescence scan. Middle panel: anti‐Flag western blot. Bottom panel: anti‐GAPDH western blot confirms equal loading. b) Accumulation of ISGylation in mouse IFN‐β‐stimulated EL4 cells. At 24 h following mouse IFN‐β treatment, cells were incubated with DMSO or increasing concentrations of indicated inhibitors for 4 h, lysed, and treated with Rho‐mISG15ct‐PA probe. Top panel: anti‐mISG15 western blot. Middle panel: fluorescence scan. Bottom panel: anti‐β‐actin western blot confirms equal loading.
Ultimately, we were interested in whether USP18 inhibitor treatment could result in a relevant phenotype in cells. USP18 is the major deISGylase to remove ISG15 from target proteins, and genetic inactivation of USP18 isopeptidase activity leads to enhanced ISGylation in vivo and in cells.^[ [26] ^] We therefore examined whether the USP18 inhibitors enhance cellular ISGylation. Accordingly, EL4 cells were stimulated with IFN‐β to induce the ISG15 machinery, prior to treatment with the inhibitors. After cell lysis and SDS‐PAGE, ISGylated proteins were stained by immunoblotting with an ISG15 antibody (Figure 6b, top panel). […] To confirm inhibition of endogenous USP18 in these experiments, samples were post‐lysis treated with Rho‐mISG15ct‐PA probe.
Generation of ISGylation and in-cell inhibition assay
Mouse EL4 cells were stimulated with 300 U/mL mouse IFN-β. At 24 hours following stimulation, cells were incubated with indicated compounds at the indicated final concentrations at 37 °C for 4 hours, then washed twice with PBS and harvested for further […]
Activity-based probe labelling
The in-cell inhibition of DUBs and mUSP18 was assessed using activity-based probe labelling assays. In brief, cell pellets were resuspended in HR buffer (50 mM Tris-HCl, 5 mM MgCl 2, 250 mM sucrose, 2 mM TCEP and a Protease inhibitor tablet (Roche), pH 7.4), and lysed by sonication (Bioruptor, Diagenode, high intensity for 10 minutes with an ON/OFF cycle of 30 seconds) at 4°C. 40 μg clarified cell lysate was incubated with Rhodamine-mISG15ct-propargylamide probe[1] (final concentration 1 μM) or Rhodamine-Ubiquitin-propargylamide probe[13] (final concentration 1 μM) at 37 °C for 30 min. Reactions were stopped by the addition of LDS (lithium dodecyl sulfate) sample buffer (Invitrogen Life Technologies, Carlsbad, CA, USA) containing 2.5% β-mercaptoethanol, followed by boiling for 7 minutes.
SDS-PAGE, in-gel fluorescence scanning, and immunoblotting
Samples were resolved on precast Bis-Tris NuPAGE Gels (Invitrogen, including 4-12%, and 10% for different samples) using MOPS buffer (Invitrogen Life Technologies, Carlsbad, CA, USA). For fluorescence scan, labeled enzymes were visualized by in-gel fluorescence using a Typhoon FLA 9500 imaging system (GE Healthcare Life Sciences) (Rhodamine channel for probe, Cy5 channel for protein marker).
For immunoblotting, proteins were transferred to a nitrocellulose membrane (Protan BA85, 0.45 μm, GE Healthcare) at 300 mA for 3 hours. […]

USP30 = target: T2, USP30 (Homo sapiens, UniProt Q70CQ3); experiment: biochemical
T2 sequence (Q70CQ3 57-517): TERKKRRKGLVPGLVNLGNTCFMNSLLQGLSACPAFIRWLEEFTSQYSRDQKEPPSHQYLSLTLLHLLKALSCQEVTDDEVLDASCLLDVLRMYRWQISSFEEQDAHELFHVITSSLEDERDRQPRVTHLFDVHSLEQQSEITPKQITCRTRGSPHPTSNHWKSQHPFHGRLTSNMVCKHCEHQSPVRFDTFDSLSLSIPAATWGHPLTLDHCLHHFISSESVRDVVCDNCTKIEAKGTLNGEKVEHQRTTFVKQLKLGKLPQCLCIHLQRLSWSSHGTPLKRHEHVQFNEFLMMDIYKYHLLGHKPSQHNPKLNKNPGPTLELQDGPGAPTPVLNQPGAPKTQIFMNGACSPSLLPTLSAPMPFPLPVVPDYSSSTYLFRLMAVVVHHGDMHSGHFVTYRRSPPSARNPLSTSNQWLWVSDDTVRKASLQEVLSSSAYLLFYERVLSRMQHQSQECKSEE
Procedure: This panel included five proteases from the USP family, two from the UCH family, and one OTU. The IC50 values were determined in a well‐established biochemical activity assay using the fluorogenic substrate Ub‐Rho‐morpholine.^[ [33] ^] For USP18, which is unreactive to Ub but specific for ISG15, we used the ISG15CT‐Rho‐morpholine (consisting of the C‐terminal domain of ISG15) substrate to monitor its activity (see Supporting Information for preparation of this substrate).
(§1) Enzymes were pre-incubated with a concentration series of the compounds for 30 minutes at
(§2) room temperature, before addition of the substrate and direct read-out by fluorescence
(§3) intensity. Data is presented as mean ± SD, n=3.
room temperature, followed by the addition of substrate and direct read-out by fluorescence
IC50 and kinact/KI determination
(§4) The assays were performed at room temperature in “nonbinding surface flat bottom low flange”
(§5) TrisꞏHCl, 100 mM NaCl, pH 7.6, 2.0 mM cysteine, 1 mg/mL 3-[(3-cholamidopropyl)-
(§6) dimethylammonio]propanesulfonic acid (CHAPS), and 0.5 mg/mL γ-globulins from bovine
(§7) blood (BGG). […] The compounds were dissolved in 10
(§8) mM DMSO stocks, and appropriate volumes were transferred to the empty plates using a
(§9) Labcyte Echo550 acoustic dispenser. A DMSO back-fill was performed to obtain equal volumes of DMSO (400 μL) in each well. N-ethylmaleimide (NEM, 10 mM) was used a positive
(§10) steps were performed on a Biotek MultiflowFX liquid dispenser. A 10 μL portion of buffer was added and the plate was vigorously shaken for 20s. Next, 5 μL of recombinant enzyme (4x final concentration) was added followed by incubation for 1h. A 5 μL portion of the substrate
(§11) (Ub-RhoMP[2] for all DUBs, ISG15ct-RhoMP (vide supra) for USP18 and Z-FR-AMC [Bachem,
(§12) RhoMP, 10 µM for Z-FR-AMC), and the increase in fluorescence over time was recorded using
(§13) excitation 360 nm, emission 450 nm for AMC). The initial enzyme velocities were calculated
(§14) from the slopes, normalized to the positive and negative controls, and plotted against the
(§15) inhibitor concentrations using the built-in equation “[inhibitor] vs response − variable slope
(§16) (four parameters), least-squares fit” with constraints “Bottom = 0” and “Top = 100” in GraphPad
(§17) Prism 7 software to obtain the IC50 values.
(§18) All data fitting and calculations were done using GraphPad Prism 7 software.

UCHL3 = target: T3, UCHL3 (Homo sapiens, UniProt P15374); experiment: IC50 determination, fluorogenic Ub-Rho-morpholine activity assay; type: biochemical; conditions: after 30 min incubation; purified compound
T3 construct: (1-230); made in house
T3 sequence (P15374 1-230): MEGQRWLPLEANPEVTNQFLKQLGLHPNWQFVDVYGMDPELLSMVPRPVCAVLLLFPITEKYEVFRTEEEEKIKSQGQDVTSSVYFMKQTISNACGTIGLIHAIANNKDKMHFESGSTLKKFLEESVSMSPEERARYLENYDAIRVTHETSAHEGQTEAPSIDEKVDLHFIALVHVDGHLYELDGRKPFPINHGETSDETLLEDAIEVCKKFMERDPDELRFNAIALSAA

UCHL1 = target: T4, UCHL1 (Homo sapiens, UniProt P09936); experiment: as above; type: biochemical; conditions: for IC50: after 30 min incubation, purified compound
T4 construct: (1-223); made in house
T4 sequence (P09936 1-223): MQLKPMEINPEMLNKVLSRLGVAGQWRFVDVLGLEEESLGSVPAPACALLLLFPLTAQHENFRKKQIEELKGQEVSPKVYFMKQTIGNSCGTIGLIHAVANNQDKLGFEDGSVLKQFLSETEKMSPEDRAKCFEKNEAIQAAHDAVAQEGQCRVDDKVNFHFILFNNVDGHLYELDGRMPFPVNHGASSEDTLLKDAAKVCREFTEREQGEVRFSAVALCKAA

USP16 = USP16 (Homo sapiens, UniProt Q9Y5T5); experiment: biochemical
Sequence of USP16 (Q9Y5T5 22-823): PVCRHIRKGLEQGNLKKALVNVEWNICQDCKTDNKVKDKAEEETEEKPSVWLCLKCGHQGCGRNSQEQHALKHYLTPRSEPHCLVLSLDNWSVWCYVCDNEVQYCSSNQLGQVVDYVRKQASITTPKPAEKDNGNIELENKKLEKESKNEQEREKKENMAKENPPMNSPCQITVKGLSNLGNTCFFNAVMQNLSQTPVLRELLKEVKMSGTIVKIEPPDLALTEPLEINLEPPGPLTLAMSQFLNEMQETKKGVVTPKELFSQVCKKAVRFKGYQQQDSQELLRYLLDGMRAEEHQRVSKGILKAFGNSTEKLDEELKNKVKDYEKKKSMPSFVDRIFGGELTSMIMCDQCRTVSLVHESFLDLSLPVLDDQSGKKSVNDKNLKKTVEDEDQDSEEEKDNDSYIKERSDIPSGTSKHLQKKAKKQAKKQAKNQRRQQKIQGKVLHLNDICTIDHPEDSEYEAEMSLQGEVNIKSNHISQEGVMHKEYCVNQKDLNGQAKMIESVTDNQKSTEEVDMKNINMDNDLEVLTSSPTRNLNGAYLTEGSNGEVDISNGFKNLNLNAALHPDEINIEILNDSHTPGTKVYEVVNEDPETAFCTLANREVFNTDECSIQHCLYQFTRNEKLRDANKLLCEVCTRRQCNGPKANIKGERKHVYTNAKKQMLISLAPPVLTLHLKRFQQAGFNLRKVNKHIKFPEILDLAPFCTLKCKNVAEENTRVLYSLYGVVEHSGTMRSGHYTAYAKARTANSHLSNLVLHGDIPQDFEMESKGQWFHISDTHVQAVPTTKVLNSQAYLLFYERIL
Procedure: This panel included five proteases from the USP family, two from the UCH family, and one OTU. The IC50 values were determined in a well‐established biochemical activity assay using the fluorogenic substrate Ub‐Rho‐morpholine.^[ [33] ^]
as §1, §2, §3
USP16 Full length N-terminal His-tag Q9Y5T5 In-house, [Mons, 2 nM
IC50 and kinact/KI determination
as §4, §5, §6, §7, §8, §9, §10, §11, §12, §13, §14, §15, §16, §17, §18

USP32 = target: T5, USP32 (Homo sapiens, UniProt Q8NFA0); experiment: IC50 determination, fluorogenic Ub-Rho-morpholine activity assay; type: biochemical; conditions: after 30 min incubation; purified compound
T5 construct: (1-1604); His-tag (N); made in house
T5 sequence (Q8NFA0 whole entry): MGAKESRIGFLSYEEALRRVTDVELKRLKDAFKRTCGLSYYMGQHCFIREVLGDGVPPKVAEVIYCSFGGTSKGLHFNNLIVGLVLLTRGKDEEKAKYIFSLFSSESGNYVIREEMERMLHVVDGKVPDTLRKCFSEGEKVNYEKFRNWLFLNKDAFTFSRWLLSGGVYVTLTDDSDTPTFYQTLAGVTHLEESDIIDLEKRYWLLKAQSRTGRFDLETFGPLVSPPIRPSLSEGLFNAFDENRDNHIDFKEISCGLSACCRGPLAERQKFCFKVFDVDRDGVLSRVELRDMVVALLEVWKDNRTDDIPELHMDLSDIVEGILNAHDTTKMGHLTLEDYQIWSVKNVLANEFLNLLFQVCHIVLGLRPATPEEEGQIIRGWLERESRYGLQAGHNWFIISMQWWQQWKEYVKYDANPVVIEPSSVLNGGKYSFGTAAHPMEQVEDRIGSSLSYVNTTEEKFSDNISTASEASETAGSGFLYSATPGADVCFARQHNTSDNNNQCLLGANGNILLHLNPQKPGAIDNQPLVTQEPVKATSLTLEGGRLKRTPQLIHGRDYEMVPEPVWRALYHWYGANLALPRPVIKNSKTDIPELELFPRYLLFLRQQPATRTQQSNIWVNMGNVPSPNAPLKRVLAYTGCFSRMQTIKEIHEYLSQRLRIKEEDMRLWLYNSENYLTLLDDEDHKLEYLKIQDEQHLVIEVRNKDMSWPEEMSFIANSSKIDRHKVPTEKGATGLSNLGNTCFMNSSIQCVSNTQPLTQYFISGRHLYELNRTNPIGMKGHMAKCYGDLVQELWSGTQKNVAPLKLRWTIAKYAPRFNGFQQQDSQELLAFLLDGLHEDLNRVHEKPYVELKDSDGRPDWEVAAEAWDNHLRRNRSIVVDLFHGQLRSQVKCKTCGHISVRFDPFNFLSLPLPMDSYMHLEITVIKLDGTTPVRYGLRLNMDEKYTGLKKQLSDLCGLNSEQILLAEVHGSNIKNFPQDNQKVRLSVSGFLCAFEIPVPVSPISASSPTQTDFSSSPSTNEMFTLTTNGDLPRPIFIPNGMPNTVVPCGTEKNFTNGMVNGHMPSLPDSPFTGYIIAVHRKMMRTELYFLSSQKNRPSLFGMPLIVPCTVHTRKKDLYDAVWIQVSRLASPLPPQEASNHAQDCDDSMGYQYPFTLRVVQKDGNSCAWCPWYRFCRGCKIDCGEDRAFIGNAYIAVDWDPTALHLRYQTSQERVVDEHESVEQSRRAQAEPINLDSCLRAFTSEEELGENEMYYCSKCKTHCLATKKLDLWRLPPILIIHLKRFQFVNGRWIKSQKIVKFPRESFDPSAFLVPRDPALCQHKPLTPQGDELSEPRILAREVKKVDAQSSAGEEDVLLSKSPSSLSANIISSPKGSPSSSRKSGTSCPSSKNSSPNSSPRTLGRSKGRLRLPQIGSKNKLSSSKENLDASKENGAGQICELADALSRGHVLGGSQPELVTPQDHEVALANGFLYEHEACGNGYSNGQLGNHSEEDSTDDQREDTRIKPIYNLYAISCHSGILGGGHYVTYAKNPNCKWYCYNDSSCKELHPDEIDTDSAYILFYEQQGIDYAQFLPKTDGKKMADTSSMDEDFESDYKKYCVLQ

USP7 = target: T6, USP7 (Homo sapiens, UniProt Q93009); experiment: as above; type: biochemical; conditions: after 30 min incubation; purified compound
T6 construct: (1-1102); GST (cleaved yes); made in house
T6 sequence (Q93009 whole entry): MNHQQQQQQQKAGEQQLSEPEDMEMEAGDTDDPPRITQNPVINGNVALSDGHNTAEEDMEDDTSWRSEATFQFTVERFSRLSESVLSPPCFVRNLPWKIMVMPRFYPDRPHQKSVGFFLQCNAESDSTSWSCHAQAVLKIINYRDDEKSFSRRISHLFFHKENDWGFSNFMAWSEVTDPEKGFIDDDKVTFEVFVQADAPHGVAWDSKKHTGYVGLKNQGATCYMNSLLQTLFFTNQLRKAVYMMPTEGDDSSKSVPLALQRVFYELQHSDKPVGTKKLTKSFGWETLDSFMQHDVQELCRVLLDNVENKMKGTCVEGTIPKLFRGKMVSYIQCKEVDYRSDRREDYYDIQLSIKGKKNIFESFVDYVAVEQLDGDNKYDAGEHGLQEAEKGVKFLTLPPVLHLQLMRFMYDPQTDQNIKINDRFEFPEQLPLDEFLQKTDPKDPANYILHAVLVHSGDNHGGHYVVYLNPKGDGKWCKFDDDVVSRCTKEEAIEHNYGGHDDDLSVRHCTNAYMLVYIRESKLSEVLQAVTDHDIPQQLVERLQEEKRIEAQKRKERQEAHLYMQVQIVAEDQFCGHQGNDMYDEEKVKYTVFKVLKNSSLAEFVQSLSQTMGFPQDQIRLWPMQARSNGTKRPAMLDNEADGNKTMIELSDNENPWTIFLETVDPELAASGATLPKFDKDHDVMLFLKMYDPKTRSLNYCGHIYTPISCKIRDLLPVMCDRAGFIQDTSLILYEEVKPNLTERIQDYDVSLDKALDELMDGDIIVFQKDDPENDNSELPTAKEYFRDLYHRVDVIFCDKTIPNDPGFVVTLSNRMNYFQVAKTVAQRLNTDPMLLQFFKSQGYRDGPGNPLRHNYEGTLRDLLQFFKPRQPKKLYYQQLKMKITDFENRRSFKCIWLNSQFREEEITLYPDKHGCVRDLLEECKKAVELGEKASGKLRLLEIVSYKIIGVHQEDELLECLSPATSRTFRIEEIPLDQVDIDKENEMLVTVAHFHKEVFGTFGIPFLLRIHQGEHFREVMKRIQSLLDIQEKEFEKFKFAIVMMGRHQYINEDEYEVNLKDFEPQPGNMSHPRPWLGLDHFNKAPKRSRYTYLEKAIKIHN

mUSP18 = target: T7, mUSP18 (Mus musculus, UniProt Q9WTV6); experiment: IC50 determination, fluorogenic ISG15CT-Rho-morpholine activity assay; type: biochemical, murine; conditions: after 30 min incubation; purified compound; ISG15CT-Rho-morpholine substrate
T7 construct: (46-368); His-tag (N); made in house
T7 sequence (Q9WTV6 46-368): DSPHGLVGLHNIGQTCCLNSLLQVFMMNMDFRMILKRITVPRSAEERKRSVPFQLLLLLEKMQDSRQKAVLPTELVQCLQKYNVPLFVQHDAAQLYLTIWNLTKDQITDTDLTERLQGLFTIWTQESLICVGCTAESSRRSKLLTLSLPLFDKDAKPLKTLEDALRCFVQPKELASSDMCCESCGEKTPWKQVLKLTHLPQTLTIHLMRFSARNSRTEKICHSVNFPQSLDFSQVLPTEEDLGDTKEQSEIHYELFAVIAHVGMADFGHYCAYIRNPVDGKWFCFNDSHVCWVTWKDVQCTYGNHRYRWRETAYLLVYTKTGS

Structure (SMILES) | concentration at which inhibition of mUSP18 probe labelling is observed (Flag-mUSP18) [µM] | IC50 (USP30) [µM] | IC50 (UCHL3) [µM] | IC50 (UCHL1) [µM] | IC50 (USP16) [µM] | IC50 (USP32) [µM] | IC50 (USP7) [µM] | IC50 (mUSP18) [µM] | less potency toward USP18 and USP30 compared with UCHL1 (UCHL1; ratio of IC50 values) | effect on cellular ISGylation [1]
Cc1cc(C(=O)N[C@@H]2C[C@@H]3CN(C#N)C[C@@H]3C2)ccc1C(C)C [BB06CA902] | 100 |  |  |  |  |  |  |  |  | hardly affected ISGylation
COc1ccccc1-c1cc(C(=O)N[C@@H]2CCN(C#N)C2)n[nH]1 [Compound 2] |  | 0.059 | 168 | 110 | 22.6 | 0.072 | 52 | 0.029 |  | 
N#CN1CC[C@H](C(=O)Nc2ncc(N3CCOCC3)s2)C1 [Compound 5] |  |  | > 200 |  |  | 242 |  | 5.1 | 20–40 fold | 

Further lines, with some results ahead:

concentration at which inhibition of mUSP18 probe labelling is observed (Flag-mUSP18) [µM] | IC50 (USP30) [µM] | IC50 (UCHL3) [µM] | IC50 (UCHL1) [µM] | IC50 (USP16) [µM] | IC50 (USP32) [µM] | IC50 (USP7) [µM] | IC50 (mUSP18) [µM] | less potency toward USP18 and USP30 compared with UCHL1 (UCHL1; ratio of IC50 values) | Structure (SMILES) | effect on cellular ISGylation [1]
 | 2.4 | > 200 | > 200 | > 200 | 59 | 171 | 5.5 |  | N#CN1CC[C@@H](NC(=O)c2ccc(N3CCCC3)cc2F)C1 [Compound 3] | 
 | 0.89 | > 200 | > 200 | 262 | 184 | 210 | 9.8 |  | N#CN1CC[C@@H](NC(=O)c2ccc(F)c(F)c2)C1 [Compound 4] | 
